Consider 23 compounds from US8933103B2, “Pyridone derivatives” (Daiichi Sankyo Company, Limited, priority 2012, dated 2015).

The test concerns the target T1, AXL (fusion protein of amino acids 464-885 of the intracellular domain of human AXL with glutathione transferase) (Homo sapiens, UniProt P30530).
T1 sequence (P30530 464-885 isoform P30530-2): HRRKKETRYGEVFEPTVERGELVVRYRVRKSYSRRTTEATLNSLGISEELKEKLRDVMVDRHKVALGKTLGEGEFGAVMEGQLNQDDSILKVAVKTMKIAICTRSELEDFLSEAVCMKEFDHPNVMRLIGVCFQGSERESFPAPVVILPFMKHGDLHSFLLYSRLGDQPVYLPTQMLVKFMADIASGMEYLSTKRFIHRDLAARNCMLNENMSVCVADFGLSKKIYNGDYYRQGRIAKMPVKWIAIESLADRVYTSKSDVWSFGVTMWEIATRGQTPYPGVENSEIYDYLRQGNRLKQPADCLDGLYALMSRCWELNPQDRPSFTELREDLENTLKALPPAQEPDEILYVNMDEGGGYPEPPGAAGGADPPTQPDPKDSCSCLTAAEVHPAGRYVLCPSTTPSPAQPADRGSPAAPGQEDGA
As to the kind of experiment: Cell-Free Axl Kinase Inhibitory Activity.
`COc1ccnc(N)c1-c1ccc(NC(=O)c2cn(CC(F)(F)F)cc(-c3ccc(F)cc3)c2=O)cc1` [Example 82, N-[4-(2-Amino-4-methoxypyridin-3-yl)phenyl]-5-(4-fluorophenyl)-4-oxo-1-(2,2,2-trifluoroethyl)-1,4-dihydropyridine-3-carboxamide]: the IC50 (in general, the concentration that gives 50% inhibition) was 1 to 10 nM. The same measure for `Cn1cc(-c2cnc(N)c(-c3ccc(NC(=O)c4cn(Cc5ccc(F)cc5)ccc4=O)cc3)c2)cn1` [Example 56, N-{4-[2-Amino-5-(1-methyl-1H-pyrazol-4-yl)pyridin-3-yl]phenyl}-1-(4-fluorobenzyl)-4-oxo-1,4-dihydropyridine-3-carboxamide]: 1 to 10 nM; for `COc1cc(-c2cnc(N)c(-c3ccc(NC(=O)c4cn(CC(F)(F)F)cc(-c5ccc(F)cc5)c4=O)cc3)c2)ccc1OC[C@H]1COCCO1` [Example 42, N-[4-(2-Amino-5-{4-[(2R)-1,4-dioxan-2-ylmethoxy]-3-methoxyphenyl}pyridin-3-yl)phenyl]-5-(4-fluorophenyl)-4-oxo-1-(2,2,2-trifluoroethyl)-1,4-dihydropyridine-3-carboxamide]: 0.1 to 1 nM; for `Cn1cc(-c2cnc(N)c(-c3ccc(NC(=O)c4cn(CCF)cc(-c5ccccc5)c4=O)cc3F)c2)cn1` [Example 55, N-{4-[2-Amino-5-(1-methyl-1H-pyrazol-4-yl)pyridin-3-yl]-3-fluorophenyl}-1-(2-fluoroethyl)-4-oxo-5-phenyl-1,4-dihydropyridine-3-carboxamide]: 1 to 10 nM. The same measure for `Nc1ncc(-c2cnn(C[C@H]3COCCO3)c2)cc1-c1ccc(NC(=O)c2cn(CCF)cc(-c3ccccc3)c2=O)cc1F` [Example 75, N-[4-(2-Amino-5-{1-[(2S)-1,4-dioxan-2-ylmethyl]-1H-pyrazol-4-yl}pyridin-3-yl)-3-fluorophenyl]-1-(2-fluoroethyl)-4-oxo-5-phenyl-1,4-dihydropyridine-3-carboxamide]: 1 to 10 nM.

In turn, `COc1ccc(-c2cnc(N)c(-c3ccc(NC(=O)c4cn(CC(F)(F)F)cc(-c5ccc(F)nc5)c4=O)cc3)c2)cc1OC` [Example 23, N-{4-[2-Amino-5-(3,4-dimethoxyphenyl)pyridin-3-yl]phenyl}-6′-fluoro-4-oxo-1-(2,2,2-trifluoroethyl)-1,4-dihydro-3,3′-bipyridine-5-carboxamide] yielded an IC50 of 1 to 10 nM. The same measure for `COc1ccc(-c2cnc(N)c(-c3ccc(NC(=O)c4cn(CC(F)(F)F)cc(-c5ccc(Cl)cc5)c4=O)cc3)c2)cc1OC` [Example 25, N-{4-[2-Amino-5-(3,4-dimethoxyphenyl)pyridin-3-yl]phenyl}-5-(4-chlorophenyl)-4-oxo-1-(2,2,2-trifluoroethyl)-1,4-dihydropyridine-3-carboxamide]: 1 to 10 nM; for `COc1ccc(-c2cnc(N)c(-c3ccc(NC(=O)c4cn(C)cc(-c5ccc(F)cc5)c4=O)cc3)c2)cc1OC` [Example 2, N-{4-[2-Amino-5-(3,4-dimethoxyphenyl)pyridin-3-yl]phenyl}-5-(4-fluorophenyl)-1-methyl-4-oxo-1,4-dihydropyridine-3-carboxamide]: 1 to 10 nM; for `COc1ccc(-c2cnc(N)c(-c3ccc(NC(=O)c4cn(Cc5ccc(F)cc5)cc(C(=O)N5C[C@@H](C)O[C@@H](C)C5)c4=O)cc3)c2)cc1OC` [Example 27, N-{4-[2-Amino-5-(3,4-dimethoxyphenyl)pyridin-3-yl]phenyl}-5-{[(2R,6S)-2,6-dimethylmorpholin-4-yl]carbonyl}-1-(4-fluorobenzyl)-4-oxo-1,4-dihydropyridine-3-carboxamide]: 0.1 to 1 nM.

`Cc1nnc(-c2cn(Cc3ccc(F)cc3)cc(C(=O)Nc3ccc(-c4cc(-c5cnn(C[C@H]6COCCO6)c5)cnc4N)cc3)c2=O)o1` [Example 74, N-[4-(2-Amino-5-{1-[(2S)-1,4-dioxan-2-ylmethyl]-1H-pyrazol-4-yl}pyridin-3-yl)phenyl]-1-(4-fluorobenzyl)-5-(5-methyl-1,3,4-oxadiazol-2-yl)-4-oxo-1,4-dihydropyridine-3-carboxamide]: the IC50 was 0.1 to 1 nM. `Nc1ncc(-c2cnn(C[C@H]3COCCO3)c2)cc1-c1ccc(NC(=O)c2cn(CCF)cc(-c3ccc(F)cc3)c2=O)cc1` [Example 65, N-[4-(2-Amino-5-{1-[(2S)-1,4-dioxan-2-ylmethyl]-1H-pyrazol-4-yl}pyridin-3-yl)phenyl]-1-(2-fluoroethyl)-5-(4-fluorophenyl)-4-oxo-1,4-dihydropyridine-3-carboxamide]: the IC50 fell in the range of 1 to 10 nM. The same measure for `COc1ccc(-c2cnc(N)c(-c3ccc(NC(=O)c4cn(CC(F)(F)F)cc(-c5ccccc5F)c4=O)cc3)c2)cc1OC` [Example 21, N-{4-[2-Amino-5-(3,4-dimethoxyphenyl)pyridin-3-yl]phenyl}-5-(2-fluorophenyl)-4-oxo-1-(2,2,2-trifluoroethyl)-1,4-dihydropyridine-3-carboxamide]: 1 to 10 nM.

For `COc1cc(-c2cnc(N)c(-c3ccc(NC(=O)c4cn(CC(F)(F)F)cc(-c5ccc(F)cc5)c4=O)cc3)c2)ccc1OCCN1CCCC1` [Example 39, N-[4-(2-Amino-5-{3-methoxy-4-[2-(pyrrolidin-1-yl)ethoxy]phenyl}pyridin-3-yl)phenyl]-5-(4-fluorophenyl)-4-oxo-1-(2,2,2-trifluoroethyl)-1,4-dihydropyridine-3-carboxamide], the IC50 was 0.1 to 1 nM. As to `CCN(CC)C(=O)c1cn(Cc2ccc(F)cc2)cc(C(=O)Nc2ccc(-c3cc(-c4cnn(C[C@H]5COCCO5)c4)cnc3N)cc2)c1=O` [Example 70, N′-[4-(2-Amino-5-{1-[(2S)-1,4-dioxan-2-ylmethyl]-1H-pyrazol-4-yl}pyridin-3-yl)phenyl]-N,N-diethyl-1-(4-fluorobenzyl)-4-oxo-1,4-dihydropyridine-3,5-dicarboxamide], the IC50 was 1 to 10 nM.

Compound `Cn1cc(-c2cnc(N)c(-c3ccc(NC(=O)c4cn(CCF)cc(-c5ccc(F)cc5)c4=O)cc3)c2)cn1` [Example 48, N-{4-[2-Amino-5-(1-methyl-1H-pyrazol-4-yl)pyridin-3-yl]phenyl}-1-(2-fluoroethyl)-5-(4-fluorophenyl)-4-oxo-1,4-dihydropyridine-3-carboxamide] returned an IC50 of 1 to 10 nM. The compound `COc1cc(-c2cnc(N)c(-c3ccc(NC(=O)c4cn(CCF)cc(-c5ccc(F)cc5)c4=O)cc3)c2)ccc1OC[C@H]1COCCO1` [Example 43, N-[4-(2-Amino-5-{4-[(2R)-1,4-dioxan-2-ylmethoxy]-3-methoxyphenyl}pyridin-3-yl)phenyl]-1-(2-fluoroethyl)-5-(4-fluorophenyl)-4-oxo-1,4-dihydropyridine-3-carboxamide] showed an IC50 of 1 to 10 nM. The same measure for `Cc1cc(=O)c(C(=O)Nc2ccc(-c3cc(-c4cnn(C)c4)cnc3N)cc2)cn1Cc1ccc(F)cc1` [Example 57, N-{4-[2-Amino-5-(1-methyl-1H-pyrazol-4-yl)pyridin-3-yl]phenyl}-1-(4-fluorobenzyl)-6-methyl-4-oxo-1,4-dihydropyridine-3-carboxamide]: 1 to 10 nM. The same measure for `COc1ccc(-c2cnc(N)c(-c3ccc(NC(=O)c4cn(CCF)cc(-c5ccc(F)cc5)c4=O)cc3)c2)cc1OC` [Example 8, N-{4-[2-Amino-5-(3,4-dimethoxyphenyl)pyridin-3-yl]phenyl}-1-(2-fluoroethyl)-5-(4-fluorophenyl)-4-oxo-1,4-dihydropyridine-3-carboxamide]: 1 to 10 nM; for `Nc1ncc(-c2cnn(C[C@H]3COCCO3)c2)cc1-c1ccc(NC(=O)c2cn(Cc3ccc(F)cc3)cc(C(=O)N3CCCC3)c2=O)cc1F` [Example 76, N-[4-(2-Amino-5-{1-[(2S)-1,4-dioxan-2-ylmethyl]-1H-pyrazol-4-yl}pyridin-3-yl)-3-fluorophenyl]-1-(4-fluorobenzyl)-4-oxo-5-(pyrrolidin-1-ylcarbonyl)-1,4-dihydropyridine-3-carboxamide]: 0.1 to 1 nM; for `COc1ccc(-c2cnc(N)c(-c3ccc(NC(=O)c4cn(Cc5ccc(F)cc5)cc(-c5ccc(F)cc5)c4=O)cc3)c2)cc1OC` [Example 11, N-{4-[2-Amino-5-(3,4-dimethoxyphenyl)pyridin-3-yl]phenyl}-1-(4-fluorobenzyl)-5-(4-fluorophenyl)-4-oxo-1,4-dihydropyridine-3-carboxamide]: 0.1 to 1 nM.

With `Nc1ncc(-c2cnn(C3CCNCC3)c2)cc1-c1ccc(NC(=O)c2cn(CCF)cc(-c3ccc(F)cc3)c2=O)cc1` [Example 62, N-{4-[2-Amino-5-(1-piperidin-4-yl-1H-pyrazol-4-yl)pyridin-3-yl]phenyl}-1-(2-fluoroethyl)-5-(4-fluorophenyl)-4-oxo-1,4-dihydropyridine-3-carboxamide], the IC50 lay within 0.1 to 1 nM. Compound `COc1ccc(-c2cnc(N)c(-c3ccc(NC(=O)c4cn(Cc5ccccn5)cc(-c5ccc(F)cc5)c4=O)cc3)c2)cc1OC` [Example 12, N-{4-[2-Amino-5-(3,4-dimethoxyphenyl)pyridin-3-yl]phenyl}-5-(4-fluorophenyl)-4-oxo-1-(pyridin-2-ylmethyl)-1,4-dihydropyridine-3-carboxamide] had an IC50 of 0.1 to 1 nM. The result for `CC(=O)N1CC=C(c2cnc(N)c(-c3ccc(NC(=O)c4cn(CC(F)(F)F)cc(-c5ccc(F)cc5)c4=O)cc3)c2)CC1` [Example 80, N-[4-(1′-Acetyl-6-amino-1′,2′,3′,6′-tetrahydro-3,4′-bipyridin-5-yl)phenyl]-5-(4-fluorophenyl)-4-oxo-1-(2,2,2-trifluoroethyl)-1,4-dihydropyridine-3-carboxamide] reads 0.1 to 1 nM.
